Experimental data as given in patent US8980077B2, “Plating bath and method” (Rohm and Haas Electronic Materials LLC, priority 2012, dated 2015).
≈ marks a conversion by molar mass, not a printed value.

How the values were obtained:
[1] = Solubility in 17% methane sulfonic acid (MSA)/DI water solution; conditions: aqueous with cosolvent or surfactant or cyclodextrin, thermodynamic from solid
Procedure: (§2) If a compound dissolved, then an additional 25 mg (in increments) of that compound was added until either no more would dissolve or 250 mg were dissolved in the 5 mL.

[2] = Stability Test 1: DI water solution plus aqueous MSA (70%), 50° C. oven, visual inspection for precipitate; assay type: physicochemical; conditions: 5.96 mg/mL in DI water plus aqueous MSA (70%)
Procedure: (§1) The stability of Compound 6 and Comparative 1 were determined using 2 different tests. In Test 1, solutions of each of Compound 6 and Comparative 1 dissolved in DI water (at a concentration of 5.96 mg/mL) were placed in separate vials. To each vial was added aqueous MSA (70%), the vials were then capped, placed in a 50° C. oven, and periodically visually inspected for the formation of precipitate. […] In Test 2, solutions of each of Compound 6 and Comparative 1 dissolved in D2O (at a concentration of 5.96 mg/mL) were placed in separate NMR tubes. A ^1H NMR (400 MHz) spectrum was obtained for each solution. Next, a solution of MSA (70%) dissolved in D2O was prepared and added to each NMR tube. A second ^1H NMR spectrum was immediately taken of each sample. Next, the NMR tubes were placed in a 50° C. oven, and periodically removed, analyzed by ^1H NMR, and returned to the oven.

[3] = Extended storage or long-term use in tin-silver electroplating bath (prior-art complexers); assay type: physicochemical
Excerpt: U.S. Pat. No. 6,998,036 discloses an acidic tin-silver alloy electroplating bath containing a certain sulfide or thiol-substituted ether compound.
U.S. Pat. No. 7,628,903 discloses conventional silver and silver-alloy electroplating baths containing certain sulfide compounds. This patent purports that these electroplating baths have good stability.

[4] = Stability Test 2: D2O solution plus MSA (70%), 50° C. oven, 1H NMR; assay type: physicochemical
Procedure: as §1

[5] = Stability in 17% MSA/water at 50° C., visual inspection for precipitation; conditions: for Stability (at 50° C.): 5 mg in 1 mL 17% MSA/water, time without precipitation; for Stability compared with Comparatives 1 and 2: 17% MSA/water
Procedure: The stability of various compounds was determined as follows: 5 mg of a compound was dissolved into 1 mL of 17% MSA/water solution and placed in a glass vial. Each vial was capped and placed in a dry heating bath at 50° C. for up to three weeks. Each sample was periodically removed from the bath and visually inspected for evidence of precipitation.

[6] = physchem; conditions: aqueous with cosolvent or surfactant or cyclodextrin, thermodynamic from solid
Procedure: as §2

solubility [1] [mg/mL] | Stability (at 50° C.) [5] | Structure (SMILES) | also measured
< 5 |  | NC(=O)CCSCCSCCC(N)=O [Compound 1, 3,3′-(Ethane-1,2-diylbis(sulfanediyl))dipropanamide] | 
< 5 |  | O=C(O)CCSCCSCCC(=O)O [Compound 2, 3,3′-(Ethane-1,2-diylbis(sulfanediyl))dipropanoic acid] | 
30 (≈ 143 mM) |  | O=C(O)CSCCSCC(=O)O [Compound 3, 2,2′-(Ethane-1,2-diylbis(sulfanediyl))diacetic acid] | 
> 60 |  | O=S(=O)(O)CCSCCSCCS(=O)(=O)O [Compound 4, 2,2′-(Ethane-1,2-diylbis(sulfanediyl))diethanesulfonic acid] | 
> 60 |  | O=S(=O)(O)CCCSCCSCCCS(=O)(=O)O [Compound 5, 3,3′-(ethane-1,2-diylbis(sulfanediyl))bis(propane-1-sulfonic acid)] | 
> 50 | >3 weeks | OCCCSCSCCCO [Compound 7, 3,3′-(Methylenebis(sulfanediyl))dipropanol] | Stability compared with Comparatives 1 and 2 [5]: significantly better
> 50 | >3 weeks | O=C(O)CSCSCC(=O)O [Compound 8, 2,2′-(Methylenebis(sulfanediyl))diacetic acid] | 
~10 (≈ 32 mM) | >3 weeks | O=C(O)CC(SCSC(CC(=O)O)C(=O)O)C(=O)O (stereo not drawn) [Compound 9, 2,2′-(Methylenebis(sulfanediyl))disuccinic acid] | 
> 50 | >3 weeks | O=C(O)CSCCCSCC(=O)O [Compound 10, 2,2′-(Propane-1,3-diylbis(sulfanediyl))diacetic acid] | 
> 50 | >3 weeks | O=S(=O)(O)CCSCCCSCCS(=O)(=O)O [Compound 11, 2,2′-(Propane-1,3-diylbis(sulfanediyl))diethyl sulfonate] | 
> 50 | >3 weeks | O=S(=O)(O)CCCSCCCSCCCS(=O)(=O)O [Compound 12, 3,3′-(Propane-1,3-diylbis(sulfanediyl))dipropyl sulfonate] | 

Structure (SMILES) | solubility [1] [mg/mL] | Stability (at 50° C.) [5] | also measured
OCCSCCSCCO [Comparative 1, 2,2′-[1,2-ethanediylbis(thio)]bis-ethanol, reference compound] | 30 to 35 (≈ 165 to 192 mM) | <24 h | Formation of precipitate (Test 1, visual inspection) ([2]; after 60 hours): a copious amount of a white, flocculent precipitate; Behaviour upon extended storage or long term use in the electroplating bath [3]: polymerize; Change of 1H NMR spectrum (Test 2) ([4]; 5.96 mg/mL in D2O, immediately upon addition of the MSA solution): loss of the ^1H NMR spectrum
OCCSCSCCO [Comparative 2, 2,2′-(Methylenebis(sulfanediyl))diethanol, reference compound] | > 50 | <1 week | 
OCCCSCCSCCCO [Compound 6, 3,3′-[1,2-Ethanediylbis(thio)]bis-1-propanol] |  | >3 weeks | Formation of precipitate (Test 1, visual inspection) ([2]; after 120 hours): no precipitate formation; Change of 1H NMR spectrum (Test 2) ([4]; 5.96 mg/mL in D2O plus MSA (70%), 50° C., after 7 days): no change in the ^1H NMR spectrum; Stability compared with Comparatives 1 and 2 [5]: significantly better; solubility [6]: 5 mg/mL (≈ 23.8 mM)
